Article PMC7462607 (eLife, 2020)
pIC50: −log10 of the molar value. Values joined by “and” are separate entries in the source; they are usually repeats but may differ in a detail not shown here. Equal entries are not always repeated. Where two headings read alike, the source gives them in different places.

What was measured:
[1] = system: CDK12 G731E or G731R knock-in A549 cells; assay: Cell viability assay, CDK12 G731E or G731R knock-in A549 cells; type: cell-based; details: Homo sapiens, four knock-in clones
Description: (§1) Seven hundred A549 cells or 1,000 HCT-116 cells in 50 µL of medium were plated per well in 384-well flat clear bottom white polystyrene TC-treated microplates (Corning, Corning, USA). After overnight attachment, cells were dosed with a serial dilution of HQ461 with a D300e digital dispenser (Tecan, Männedorf, Switzerland). Cell survival was measured 72 hr later using CellTiter-Glo luminescent cell viability assay kit (Promega, Madison, USA) following vendor instructions. Luminescence was recorded by EnVison multimode plate reader (PerkinElmer, Waltham, USA). IC50 was determined with GraphPad Prism using baseline correction (by normalizing to DMSO control), the asymmetric (five parameter) equation, and least squares fit.
An sgRNA targeting CDK12 (5’-[…]-3’) was cloned into the pSpCas9(BB)−2A-eGFP (PX458) vector (Addgene 48138). For CDK12 G731E/R knock-in, 1 million A549 cells were nucleofected (using 4D-Nucleofector, Lonza, Basel, Switzerland) with PX458-sgCDK12 and single-stranded oligodeoxynucleotides (G731E: 5’-ttatatacttggccataggttccttctccaataatTTCaataatgtcaaacttgtccacacagcgtttcccccagtc-3’; G731R: 5’-ttatatacttggccataggttccttctccaataatGCGaataatgtcaaacttgtccacacagcgtttcccccagtc-3’). Afterwards, cells were exposed to 5 µM 0461 for 2 weeks to select for cells with CDK12 G731E/R knock-in. […]

[2] = biological target: T1, CDK13 kinase domain/CCNK-3xHA (Homo sapiens, UniProt Q14004); assay: Co-expression of 3xFLAG-CDK13 kinase domain with CCNK-3xHA; type: cell-based; details: 293T, HQ461 8 hr; not with G709E or G709R
T1 construct: ORFs encoding residues 715–1052 of CDK12 and residues 693–1030 of CDK13; expressed in transfected cells; host or cells: 293T
T1 sequence (O75909 whole entry, the tested form may be a part): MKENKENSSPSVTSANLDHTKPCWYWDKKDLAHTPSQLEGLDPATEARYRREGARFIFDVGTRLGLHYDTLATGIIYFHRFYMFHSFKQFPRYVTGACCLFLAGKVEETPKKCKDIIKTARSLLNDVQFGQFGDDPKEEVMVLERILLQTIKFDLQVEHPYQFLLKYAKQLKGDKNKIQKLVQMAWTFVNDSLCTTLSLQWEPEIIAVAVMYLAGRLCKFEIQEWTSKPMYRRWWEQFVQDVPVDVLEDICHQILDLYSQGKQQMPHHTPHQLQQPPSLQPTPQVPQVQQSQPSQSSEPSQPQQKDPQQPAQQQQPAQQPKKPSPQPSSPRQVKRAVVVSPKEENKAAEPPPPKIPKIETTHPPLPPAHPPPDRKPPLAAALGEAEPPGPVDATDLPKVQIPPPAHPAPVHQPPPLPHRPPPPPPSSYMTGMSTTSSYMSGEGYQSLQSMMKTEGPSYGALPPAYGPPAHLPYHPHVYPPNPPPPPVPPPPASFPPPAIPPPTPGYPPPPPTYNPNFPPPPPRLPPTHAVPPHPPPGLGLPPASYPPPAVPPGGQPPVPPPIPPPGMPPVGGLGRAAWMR
T1 sequence (Q14004 693-1030): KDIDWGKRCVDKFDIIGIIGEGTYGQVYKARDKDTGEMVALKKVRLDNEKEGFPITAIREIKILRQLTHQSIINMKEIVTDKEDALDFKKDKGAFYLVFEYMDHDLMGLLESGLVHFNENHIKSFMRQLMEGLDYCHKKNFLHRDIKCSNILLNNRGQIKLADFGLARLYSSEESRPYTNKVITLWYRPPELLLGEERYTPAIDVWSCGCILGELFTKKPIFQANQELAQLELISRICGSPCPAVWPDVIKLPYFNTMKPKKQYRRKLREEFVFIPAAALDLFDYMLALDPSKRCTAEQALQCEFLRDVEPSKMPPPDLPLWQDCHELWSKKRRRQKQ
T1 sequence (Q16531 2-1140, further chain): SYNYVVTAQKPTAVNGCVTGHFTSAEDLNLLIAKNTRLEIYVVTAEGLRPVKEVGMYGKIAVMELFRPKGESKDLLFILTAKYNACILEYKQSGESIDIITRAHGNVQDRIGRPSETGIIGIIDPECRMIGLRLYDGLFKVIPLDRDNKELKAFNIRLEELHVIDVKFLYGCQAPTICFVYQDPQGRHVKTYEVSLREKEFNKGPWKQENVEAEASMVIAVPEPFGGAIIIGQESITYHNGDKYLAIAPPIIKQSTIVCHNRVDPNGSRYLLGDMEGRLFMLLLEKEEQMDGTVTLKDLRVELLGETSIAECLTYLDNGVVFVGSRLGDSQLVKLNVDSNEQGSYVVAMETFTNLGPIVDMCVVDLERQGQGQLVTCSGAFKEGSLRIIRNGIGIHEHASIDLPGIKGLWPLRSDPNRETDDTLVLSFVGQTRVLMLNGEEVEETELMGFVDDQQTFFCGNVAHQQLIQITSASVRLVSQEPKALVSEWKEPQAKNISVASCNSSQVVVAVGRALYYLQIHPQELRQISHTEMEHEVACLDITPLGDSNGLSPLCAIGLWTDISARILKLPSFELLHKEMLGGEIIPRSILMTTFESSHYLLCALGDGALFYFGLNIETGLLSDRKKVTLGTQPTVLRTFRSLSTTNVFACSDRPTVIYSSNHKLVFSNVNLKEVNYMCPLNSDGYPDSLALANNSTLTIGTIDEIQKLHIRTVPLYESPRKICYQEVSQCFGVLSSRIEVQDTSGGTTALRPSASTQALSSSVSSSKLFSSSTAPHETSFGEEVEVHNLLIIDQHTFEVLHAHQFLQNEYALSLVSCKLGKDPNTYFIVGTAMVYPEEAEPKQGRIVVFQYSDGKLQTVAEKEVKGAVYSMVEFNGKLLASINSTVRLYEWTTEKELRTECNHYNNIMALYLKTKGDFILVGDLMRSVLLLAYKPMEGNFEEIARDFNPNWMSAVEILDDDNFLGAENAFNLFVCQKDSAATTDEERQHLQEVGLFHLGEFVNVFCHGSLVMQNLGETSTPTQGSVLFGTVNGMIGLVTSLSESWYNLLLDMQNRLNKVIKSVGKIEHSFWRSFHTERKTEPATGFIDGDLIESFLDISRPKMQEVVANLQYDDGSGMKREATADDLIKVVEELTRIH
Description: ORFs encoding residues 715–1052 of CDK12 and residues 693–1030 of CDK13 were cloned into a pCDNA3.1-N-3xFLAG vector. For setting up cells for co-transfection, 0.6 million 293 T cells were seeded per well in 6-well tissue-culture plates and allowed to attach to plates overnight. These cells were then transfected with 50 ng of pCDNA3.1-3xFLAG-CDK12/13 kinase domain, 50 ng of pCDNA3.1-CCNK-3xHA, and 400 ng of the empty pCDNA3.1 vector. Twenty-four hours post transfection, cells were treated with HQ461 for 8 hr, and lysates were collected for western blotting with anti-FLAG and anti-HA antibodies.

HCT-116 cells = assay: Cell viability assay, parental HCT-116 and HQ461-resistant HCT-116 clones; type: cell-based, Homo sapiens; details: for CellTiter-Glo (ATP): raw signal, listed as 0461; for pIC50: Homo sapiens, HCT-116
Description: as §1
Parental HCT-116 were plated sparsely on 10 cm plates to allow the isolation of ten individual clones. Each of these ten clones were expanded to one confluent 15 cm plate to establish ten independent cell populations. One million cells from each population were then plated on one 10 cm plate and treated with 20 µM HQ461 continuously for two weeks, with media change every 3 to 4 days. HQ461 resistant clones emerged from 5 out of the 10 populations. These clones were isolated, expanded, and tested for their sensitivity to HQ461 using cell viability assay. Five HQ461-resistant clones selected from independent populations were subjected to genomic DNA isolation as described in the previous session. Their genomic DNAs were then pooled in equal amounts for whole-exome sequencing at 200x average coverage (Novogene, Beijing, China). As a control, genomic DNAs isolated from the corresponding cell populations before HQ461 selection were also pooled for whole-exome sequencing. Raw sequencing data have been deposited to NCBI GEO (GSE153707).

Cc1cccc(Nc2nc(CC(=O)Nc3ncc(C)s3)cs2)n1 [HQ461, 2-(2-((6-methylpyridin-2-yl)amino)thiazol-4-yl)-N-(5-methylthiazol-2-yl)acetamide]
pIC50 [1]: 4.44 to 4.60
CCNK degradation with co-expressed wild-type CDK13 kinase domain [2]: sufficient for mediating HQ461-dependent degradation of CCNK
CellTiter-Glo (ATP) (HCT-116 cells; HCT-116 Parental, 1.43856e-6 M): 1.76E+06 and 1.77E+06 and 2.14E+06 and 2.07E+06
CellTiter-Glo (ATP) (HCT-116 cells; HCT-116 Parental, 1.85257e-5 M): 147560 and 197570
CellTiter-Glo (ATP) (HCT-116 cells; HCT-116 Parental, 1.91632e-5 M): 303300 and 182560
CellTiter-Glo (ATP) (HCT-116 cells; HCT-116 Parental, 3.09439e-5 M): 96830 and 121990
CellTiter-Glo (ATP) (HCT-116 cells; HCT-116 Parental, 3.21364e-5 M): 122490 and 116460
CellTiter-Glo (ATP) (HCT-116 cells; HCT-116 Parental, 5.00E-07 M): 1.93E+06 and 2.16E+06
CellTiter-Glo (ATP) (HCT-116 cells; HCT-116 Parental, 5.19E-07 M): 1.68E+06 and 1.79E+06
CellTiter-Glo (ATP) (HCT-116 cells; HCT-116 Parental, 7.99E-07 M): 2.18E+06 and 1.85E+06
CellTiter-Glo (ATP) (HCT-116 cells; HCT-116 Parental, 8.79E-07 M): 1.85E+06 and 1.84E+06
CellTiter-Glo (ATP) (HCT-116 cells; HCT-116 resistant clone 2R, 1.27872e-6 M): 1.68E+06 and 1.80E+06
CellTiter-Glo (ATP) (HCT-116 cells; HCT-116 resistant clone 2R, 1.35864e-6 M): 1.87E+06 and 1.72E+06
CellTiter-Glo (ATP) (HCT-116 cells; HCT-116 resistant clone 2R, 1.71705e-5 M): 742920 and 664400
CellTiter-Glo (ATP) (HCT-116 cells; HCT-116 resistant clone 2R, 1.78082e-5 M): 650900 and 675880
CellTiter-Glo (ATP) (HCT-116 cells; HCT-116 resistant clone 2R, 2.87969e-5 M): 418620 and 384180
CellTiter-Glo (ATP) (HCT-116 cells; HCT-116 resistant clone 2R, 2.98307e-5 M): 380430 and 316510
CellTiter-Glo (ATP) (HCT-116 cells; HCT-116 resistant clone 2R, 7.99E-07 M): 1.71E+06 and 1.76E+06 and 1.66E+06 and 1.65E+06
CellTiter-Glo (ATP) (HCT-116 cells; HCT-116 resistant clone 5R, 1.1988e-6 M): 1.40E+06 and 1.72E+06
CellTiter-Glo (ATP) (HCT-116 cells; HCT-116 resistant clone 5R, 1.27872e-6 M): 1.47E+06 and 1.50E+06
CellTiter-Glo (ATP) (HCT-116 cells; HCT-116 resistant clone 5R, 1.59745e-5 M): 708690 and 643890
CellTiter-Glo (ATP) (HCT-116 cells; HCT-116 resistant clone 5R, 1.65326e-5 M): 713930 and 686510
CellTiter-Glo (ATP) (HCT-116 cells; HCT-116 resistant clone 5R, 2.67284e-5 M): 402240 and 357240
CellTiter-Glo (ATP) (HCT-116 cells; HCT-116 resistant clone 5R, 2.77628e-5 M): 421400 and 366190
CellTiter-Glo (ATP) (HCT-116 cells; HCT-116 resistant clone 5R, 7.19E-07 M): 1.56E+06 and 1.54E+06 and 1.42E+06 and 1.57E+06
CellTiter-Glo (ATP) (HCT-116 cells; HCT-116 resistant clone 6R, 1.11888e-6 M): 1.62E+06 and 1.45E+06
CellTiter-Glo (ATP) (HCT-116 cells; HCT-116 resistant clone 6R, 1.1988e-6 M): 1.35E+06 and 1.55E+06
CellTiter-Glo (ATP) (HCT-116 cells; HCT-116 resistant clone 6R, 1.48579e-5 M): 838610 and 815000
CellTiter-Glo (ATP) (HCT-116 cells; HCT-116 resistant clone 6R, 1.54163e-5 M): 808740 and 730030
CellTiter-Glo (ATP) (HCT-116 cells; HCT-116 resistant clone 6R, 2.48182e-5 M): 327830 and 270480
CellTiter-Glo (ATP) (HCT-116 cells; HCT-116 resistant clone 6R, 2.57734e-5 M): 314810 and 296570
CellTiter-Glo (ATP) (HCT-116 cells; HCT-116 resistant clone 6R, 6.71E-07 M): 1.36E+06 and 1.56E+06
CellTiter-Glo (ATP) (HCT-116 cells; HCT-116 resistant clone 6R, 6.95E-07 M): 1.61E+06 and 1.53E+06
CellTiter-Glo (ATP) (HCT-116 cells; HCT-116 resistant clone 8R, 1.03896e-6 M): 1.50E+06 and 1.58E+06
CellTiter-Glo (ATP) (HCT-116 cells; HCT-116 resistant clone 8R, 1.11888e-6 M): 1.51E+06 and 1.63E+06
CellTiter-Glo (ATP) (HCT-116 cells; HCT-116 resistant clone 8R, 1.42995e-5 M): 543300 and 1.00E+06
CellTiter-Glo (ATP) (HCT-116 cells; HCT-116 resistant clone 8R, 2.30667e-5 M): 427880 and 390970
CellTiter-Glo (ATP) (HCT-116 cells; HCT-116 resistant clone 8R, 2.39426e-5 M): 409850 and 403510
CellTiter-Glo (ATP) (HCT-116 cells; HCT-116 resistant clone 8R, 4.00787e-5 M): 298050 and 276140
CellTiter-Glo (ATP) (HCT-116 cells; HCT-116 resistant clone 8R, 6.23E-07 M): 1.45E+06 and 1.63E+06
CellTiter-Glo (ATP) (HCT-116 cells; HCT-116 resistant clone 8R, 6.47E-07 M): 1.55E+06 and 1.60E+06
CellTiter-Glo (ATP) (HCT-116 cells; HCT-116 resistant clone 9R, 1.03896e-6 M): 288440 and 333120
CellTiter-Glo (ATP) (HCT-116 cells; HCT-116 resistant clone 9R, 2.13941e-5 M): 65580 and 36800
CellTiter-Glo (ATP) (HCT-116 cells; HCT-116 resistant clone 9R, 2.22704e-5 M): 50040 and 30190
CellTiter-Glo (ATP) (HCT-116 cells; HCT-116 resistant clone 9R, 3.58708e-5 M): 46680 and 23830
CellTiter-Glo (ATP) (HCT-116 cells; HCT-116 resistant clone 9R, 3.72209e-5 M): 43970 and 22740
CellTiter-Glo (ATP) (HCT-116 cells; HCT-116 resistant clone 9R, 5.79E-07 M): 315200 and 382800
CellTiter-Glo (ATP) (HCT-116 cells; HCT-116 resistant clone 9R, 5.99E-07 M): 335950 and 324000
CellTiter-Glo (ATP) (HCT-116 cells; HCT-116 resistant clone 9R, 9.59E-07 M): 277130 and 355980
increase of IC50 relative to parental HCT-116 cells (HCT-116 cells; HQ461-resistant HCT-116 clones): three-fold
pIC50 (HCT-116 cells; five HQ461-resistant clones, read-out: IC50 on the viability of five HQ461-resistant HCT-116 clones): 4.84 to 4.89
pIC50 (HCT-116 cells; read-out: IC50 on the viability of parental HCT-116): 5.34
